Assay results taken from patent publication US11946070B2, “Method of reinforcing efficacy of stem cells using ethionamide” (SAMSUNG LIFE PUBLIC WELFARE FOUNDATION, priority 2019, dated 2024).

What was measured:
[1] = test system: human umbilical cord mesenchymal stem cells; settings: ethionamide 50 or 100 μM; FIG. 4B
Protocol: (§1) First, a 3 to 4 cm piece of umbilical cord tissue was fragmented, and treated with a collagenase solution (Gibco, USA) for 60 to 90 minutes to digest an extracellular matrix, followed by digestion with 0.25% trypsin (Gibco, USA) for 30 minutes at 37° C. Subsequently, cells were obtained by adding fetal bovine serum (FBS; Biowest, USA) to the resulting product, and then performing centrifugation at 1000×g for 10 minutes, and then cultured using Minimum Essential Media (MEM; Gibco, USA) supplemented with 10% FBS and 50 μg/ml gentamycin (Gibco, USA) at 37° C. in a 5% CO2 atmosphere, and thus mesenchymal stem cells at passage 5 or 6 were used for an experiment.
(§2) 6×10^3 cells/cm 2 of the human umbilical cord mesenchymal stem cells prepared according to the method of Example 1 were seeded in a cell culture container, and simultaneously, ethionamide was treated at a concentration of 50 μM, 100 μM or 150 μM, followed by culturing for 72 hours.
Subsequently, the mesenchymal stem cells were treated with ethionamide by the same method as described above, and mRNA expression levels of antioxidation-related factors, such as HO-1, NQO1, GCLC and GCLM were measured.

[2] = test system: human umbilical cord mesenchymal stem cells; settings: ethionamide 50 or 100 μM; FIG. 4A
Protocol: as §1, §2
To verify whether the expression level of a paracrine factor of mesenchymal stem cells is changed by ethionamide treatment, the mesenchymal stem cells were treated with ethionamide at 50 or 100 μM, and then expression levels of a brain-derived neurotrophic factor (BDNF), a vascular endothelial cell growth factor (VEGF), insulin-like growth factor-1 (IGF-1) and a hepatocyte growth factor (HGF), which are known as paracrine factors, were measured.

Compound: CCc1cc(C(N)=S)ccn1 [ethionamide, 2-ethylpyridine-4-carbothioamide]
- GCLC mRNA expression level [1]: significantly increases in proportion to the treated concentration of ethionamide
- GCLM mRNA expression level [1]: significantly increases in proportion to the treated concentration of ethionamide
- HO-1 mRNA expression level [1]: significantly increases in proportion to the treated concentration of ethionamide
- NQO1 mRNA expression level [1]: significantly increases in proportion to the treated concentration of ethionamide
- BDNF expression level [2]: increases in proportion to the treated concentration of ethionamide
- HGF expression level [2]: increases in proportion to the treated concentration of ethionamide
- IGF-1 expression level [2]: increases in proportion to the treated concentration of ethionamide
- VEGF expression level [2]: increases in proportion to the treated concentration of ethionamide
